Data published in patent publication US20220347175A1, “PYRIDAZINONE DERIVATIVE” (Sumitomo Dainippon Pharma Co., Ltd., priority 2018, published 2022).

What was measured:
human Nav1.1 = target: T1, human Nav1.1 (Homo sapiens, UniProt P35498); assay: Amplification of Nav1.1-derived voltage-dependent sodium current (Nav1.1 current), cell line stably expressing human Nav1.1, automated patch clamp; assay type: cell-based; settings: for activation at 1 µM: compound 1 μmol/L
T1 construct: host or cells: HEK293
In short: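 Amplification rate (%) is 100 × post-compound/pre-compound Nav1.1 peak current or AUC, minus 100. Ramp-evoked sodium currents were recorded by automated patch clamp in a human Nav1.1 HEK293 stable line, restricted to cells exceeding 500 pA, with compounds added in extracellular solution containing 1% DMSO.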

human Nav1.5 = target: T2, human Nav1.5 (Homo sapiens, UniProt Q14524); assay: Amplification of Nav1.5-derived voltage-dependent sodium current (Nav1.5 current), cell line stably expressing human Nav1.5, automated patch clamp; assay type: cell-based; settings: for activation at 1 µM: compound 1 μmol/L
T2 construct: expressed in transfected cells; host or cells: CHO-K1 (T-REx System, ThermoFisher Scientific)
T2 sequence (Q14524 1-2015 isoform Q14524-2): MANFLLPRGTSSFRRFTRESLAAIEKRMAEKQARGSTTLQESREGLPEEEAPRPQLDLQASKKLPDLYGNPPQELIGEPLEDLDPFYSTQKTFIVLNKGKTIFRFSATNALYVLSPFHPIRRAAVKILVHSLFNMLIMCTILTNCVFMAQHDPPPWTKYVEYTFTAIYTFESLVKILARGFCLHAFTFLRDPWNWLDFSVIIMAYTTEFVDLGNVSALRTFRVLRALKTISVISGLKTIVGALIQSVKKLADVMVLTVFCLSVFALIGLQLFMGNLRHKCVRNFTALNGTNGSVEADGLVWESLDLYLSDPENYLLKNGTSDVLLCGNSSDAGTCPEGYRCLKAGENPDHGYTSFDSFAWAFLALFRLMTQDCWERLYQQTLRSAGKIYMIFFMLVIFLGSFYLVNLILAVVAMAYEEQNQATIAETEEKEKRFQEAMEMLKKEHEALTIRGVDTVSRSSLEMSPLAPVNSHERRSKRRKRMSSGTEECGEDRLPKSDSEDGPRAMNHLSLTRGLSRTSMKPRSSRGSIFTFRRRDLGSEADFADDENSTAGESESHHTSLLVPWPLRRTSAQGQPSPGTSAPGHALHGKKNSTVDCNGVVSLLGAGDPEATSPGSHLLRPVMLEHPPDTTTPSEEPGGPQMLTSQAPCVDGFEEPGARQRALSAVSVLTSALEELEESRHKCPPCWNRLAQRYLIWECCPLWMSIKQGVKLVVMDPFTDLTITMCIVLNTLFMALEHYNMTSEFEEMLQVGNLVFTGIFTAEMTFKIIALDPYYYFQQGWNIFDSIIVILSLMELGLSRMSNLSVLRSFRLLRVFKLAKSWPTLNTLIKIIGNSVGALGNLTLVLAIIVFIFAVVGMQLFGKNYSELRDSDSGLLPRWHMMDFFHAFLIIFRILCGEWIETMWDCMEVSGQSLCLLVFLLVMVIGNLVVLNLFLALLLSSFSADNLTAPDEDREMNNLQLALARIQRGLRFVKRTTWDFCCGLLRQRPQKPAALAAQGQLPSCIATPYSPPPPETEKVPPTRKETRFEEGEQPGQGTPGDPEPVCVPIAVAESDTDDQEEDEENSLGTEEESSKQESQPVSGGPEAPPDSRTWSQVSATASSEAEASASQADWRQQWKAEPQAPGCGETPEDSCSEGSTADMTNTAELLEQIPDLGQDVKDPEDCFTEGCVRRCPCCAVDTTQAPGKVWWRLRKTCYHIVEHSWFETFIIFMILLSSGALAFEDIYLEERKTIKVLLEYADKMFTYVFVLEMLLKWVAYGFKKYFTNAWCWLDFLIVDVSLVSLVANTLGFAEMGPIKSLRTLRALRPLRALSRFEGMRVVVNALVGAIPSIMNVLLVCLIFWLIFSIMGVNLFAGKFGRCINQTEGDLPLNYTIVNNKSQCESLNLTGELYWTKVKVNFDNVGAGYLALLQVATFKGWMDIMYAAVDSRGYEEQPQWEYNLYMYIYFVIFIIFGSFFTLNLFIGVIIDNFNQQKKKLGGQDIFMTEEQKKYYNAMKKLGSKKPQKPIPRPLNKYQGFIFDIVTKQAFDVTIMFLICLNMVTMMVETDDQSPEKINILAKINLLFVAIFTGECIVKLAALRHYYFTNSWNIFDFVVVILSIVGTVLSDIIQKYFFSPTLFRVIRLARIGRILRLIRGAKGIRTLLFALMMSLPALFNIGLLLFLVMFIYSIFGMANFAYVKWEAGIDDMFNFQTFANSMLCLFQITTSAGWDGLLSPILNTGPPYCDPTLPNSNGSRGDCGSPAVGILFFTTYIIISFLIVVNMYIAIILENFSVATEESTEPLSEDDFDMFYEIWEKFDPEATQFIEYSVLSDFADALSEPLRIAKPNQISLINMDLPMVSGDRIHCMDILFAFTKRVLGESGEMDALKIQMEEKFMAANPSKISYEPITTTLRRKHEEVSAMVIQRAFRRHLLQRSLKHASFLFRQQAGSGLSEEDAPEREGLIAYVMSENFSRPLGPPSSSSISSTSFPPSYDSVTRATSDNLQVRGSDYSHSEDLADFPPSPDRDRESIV
Protocol: Test 2: Evaluation of the Amplification in Nav1.5-Derived Voltage-Dependent Sodium Current (Nav1.5 Current) by Using a Cell Line Stably Expressing Human Nav1.5
A CHO-K1 cell line (Chinese hamster ovary) stably expressing human Nav1.5 (Gene Bank Accession No: P000326.2) was obtained by using purchased T-Rex System (ThermoFisher Scientific, USA), and used for the present test. The effect of test compounds on the amplification of Nav1.5 current was evaluated by using a cell line stably expressing human Nav1.5 and HTS automated patch clamp system, similarly in the method using Nav1.1. In other words, test compounds were added in an extracellular fluid which contained 1% DMSO and 500 nmol/L Tetrodotoxin (TTX), and evaluated as a change of the peak value of Nav1.5 current and the area under the curve (AUC). The induction and the measurement of Nav1.5 current, the pharmacologic effect on Nav1.5 current, and a method for pharmacological evaluation were carried out by the same method as in Nav1.1.

[1] = 10 μmol/L compound, change of the area under the curve of Nav1.1 current (Test Result 1)
[2] = 10 μmol/L compound, change of the area under the curve of Nav1.5 current (Test Result 1)
[3] = compound 3 μmol/L, HEK293 stably expressing human Nav1.1
[4] = compound 3 μmol/L, CHO-K1 stably expressing human Nav1.5
[5] = 10 μmol/L compound, change of the area under the curve of Nav1.1 current (Test Result 1), read-out: Nav1.1 current amplification rate (%)
[6] = 10 μmol/L compound, change of the area under the curve of Nav1.5 current (Test Result 1), read-out: Nav1.5 current amplification rate (%)
[7] = HEK293 stably expressing human Nav1.1, read-out: Nav1.1 current amplification rate (%)
[8] = CHO-K1 stably expressing human Nav1.5, read-out: Nav1.5 current amplification rate (%)

With `CC1CCN(c2ccc(=O)n(CC(=O)Nc3ccc(C(=O)N4CCCC4)cc3)n2)CC1` [Example 79] the “Nav1.1 current amplification rate (%)” value (human Nav1.1; [1]) was 165% and the “Nav1.5 current amplification rate (%)” value (human Nav1.5; [2]) was 4%.
`CC1CC=C(c2ccc(=O)n(CC(=O)N3CCc4c(C5CN(C(=O)C(C)(C)O)C5)cccc43)n2)CC1` (racemic) [Example 306] was tested, and the “Nav1.1 current amplification rate (%)” value (human Nav1.1; [3]) was 532% and the “Nav1.5 current amplification rate (%)” value (human Nav1.5; [4]) was 327%.
In the case of `COc1cc(C2=CCC(C(F)(F)F)CC2)nn(CC(=O)Nc2ccc3ocnc3c2)c1=O` (stereo not shown) [Example 447], the “Nav1.1 current amplification rate (%)” value (human Nav1.1; [1]) was 148% and the “Nav1.5 current amplification rate (%)” value (human Nav1.5; [2]) was 6%.
`CC1CCN(c2ccc(=O)n(CC(=O)Nc3ccc4c(c3)ncn4C)n2)CC1` [Example 98] was tested, and the “Nav1.1 current amplification rate (%)” value (human Nav1.1; [1]) was 15% and the “Nav1.5 current amplification rate (%)” value (human Nav1.5; [2]) was 4%.
With `O=C(Cn1nc(C2=CCC(C(F)(F)F)CC2)ccc1=O)Nc1ccc2ocnc2c1` (stereo not shown) [Example 446] the “Nav1.1 current amplification rate (%)” value (human Nav1.1; [1]) was 333% and the “Nav1.5 current amplification rate (%)” value (human Nav1.5; [2]) was 10%.
`O=C(Cn1nc(C2=CCC3(CC2)CC3(F)F)ccc1=O)N1CCN(c2cncc(C(F)(F)F)c2)CC1` (stereo not shown) [Example 509] was tested, and the activation at 3 µM (human Nav1.1; compound 3 μmol/L, HEK293 stably expressing human Nav1.1, read-out: Nav1.1 current amplification rate (%)) was 238% and the activation at 3 µM (human Nav1.5; compound 3 μmol/L, CHO-K1 stably expressing human Nav1.5, read-out: Nav1.5 current amplification rate (%)) was 5%.
In the case of `CC1CC=C(c2ccc(=O)n(CC(=O)N3CCc4c(-c5ccnn5C)cccc43)n2)CC1` (racemic) [Example 251], the “Nav1.1 current amplification rate (%)” value (human Nav1.1; [3]) was 307% and the “Nav1.5 current amplification rate (%)” value (human Nav1.5; [4]) was 15%.
For `CC1CCN(c2ccc(=O)n(CC(=O)Nc3ccnc(N4CCOCC4)c3)n2)CC1` [Example 66], the “Nav1.1 current amplification rate (%)” value (human Nav1.1; [1]) was 49% and the “Nav1.5 current amplification rate (%)” value (human Nav1.5; [2]) was 31%.
`CC1CC=C(c2ccc(=O)n(CC(=O)N3CCc4c3ccnc4Cl)n2)CC1` (racemic) [Example 247] was tested, and the “Nav1.1 current amplification rate (%)” value (human Nav1.1; [1]) was 53% and the “Nav1.5 current amplification rate (%)” value (human Nav1.5; [2]) was 43%.
For `CC1CC=C(c2ccc(=O)n(CC(=O)Nc3ccn4cc(C(F)(F)F)nc4c3)n2)CC1` (stereo not shown) [Example 421], the “Nav1.1 current amplification rate (%)” value (human Nav1.1; [1]) was 199% and the “Nav1.5 current amplification rate (%)” value (human Nav1.5; [2]) was 34%.
Compound `CC1(C)CN(c2ccc(=O)n(CC(=O)Nc3ccc4ocnc4c3)n2)CCC12CC2(F)F` (stereo not shown) [Example 214] has an activation at 10 µM (human Nav1.1; [5]) of 64% and an activation at 10 µM (human Nav1.5; [6]) of -1%.
With `CC1CCN(c2ccc(=O)n(CC(=O)Nc3ccc(C#N)nc3)n2)CC1` [Example 51] the “Nav1.1 current amplification rate (%)” value (human Nav1.1; [1]) was 196% and the “Nav1.5 current amplification rate (%)” value (human Nav1.5; [2]) was 31%.
`Cc1ccc(N2CCN(C(=O)Cn3nc(C4=CCC(C)(C)CC4)ccc3=O)CC2)cn1` [Example 443] was tested, and the “Nav1.1 current amplification rate (%)” value (human Nav1.1; [1]) was 114% and the “Nav1.5 current amplification rate (%)” value (human Nav1.5; [2]) was 1%.
With `CC1CC=C(c2ccc(=O)n(CC(=O)Nc3ccn4c(C5CC5)cnc4c3)n2)CC1` (racemic) [Example 335] the “Nav1.1 current amplification rate (%)” value (human Nav1.1; [3]) was 187% and the “Nav1.5 current amplification rate (%)” value (human Nav1.5; [4]) was 65%.
`CC1(C)CC=C(c2ccc(=O)n(CC(=O)Nc3ccc4ocnc4c3)n2)CC1` [Example 445, N-(1,3-benzooxazol-5-yl)-2-[3-(4,4-dimethylcyclohex-1-en-1-yl)-6-oxopyridazin-1(6H)-yl]acetamide] showed an activation at 10 µM (human Nav1.1; [5]) of 320% and an activation at 10 µM (human Nav1.5; [6]) of 52%.
`N#Cc1cc(NC(=O)Cn2nc(C3=CCC(F)(F)CC3)ccc2=O)ccn1` [Example 115] was tested, and the activation at 10 µM (human Nav1.1; [5]) was 56% and the activation at 10 µM (human Nav1.5; [6]) was 12%.
With `COc1cc(C2=CCC(C)(C)CC2)nn(CC(=O)Nc2ccn3ccnc3c2)c1=O` [Example 456] the “Nav1.1 current amplification rate (%)” value (human Nav1.1; [1]) was 224% and the “Nav1.5 current amplification rate (%)” value (human Nav1.5; [2]) was 29%.
For `O=C(Cn1nc(C2=CCCCC2)ccc1=O)N1CCc2c(C3=CCOCC3)cccc21` [Example 528], the activation at 1 µM (human Nav1.1; [7]) was 198% and the activation at 1 µM (human Nav1.5; [8]) was 24%.
Work on `N#Cc1cncc(NC(=O)Cn2nc(C3=CCC(F)(F)CC3)ccc2=O)c1` [Example 107] yielded an activation at 10 µM (human Nav1.1; [5]) of 37% and an activation at 10 µM (human Nav1.5; [6]) of 24%.
For `O=C(Cn1nc(C2=CCC(F)(F)CC2)ccc1=O)N1CCN(c2cncc(F)c2)CC1` [Example 489], the “Nav1.1 current amplification rate (%)” value (human Nav1.1; [1]) was 29% and the “Nav1.5 current amplification rate (%)” value (human Nav1.5; [2]) was 0%.
For `CC1(C)CC=C(c2ccc(=O)n(CC(=O)Nc3ccn4ccnc4c3)n2)C1` [Example 465], the “Nav1.1 current amplification rate (%)” value (human Nav1.1; [1]) was 186% and the “Nav1.5 current amplification rate (%)” value (human Nav1.5; [2]) was 8%.
`CC1(C)CCN(c2ccc(=O)n(CC(=O)N3CCc4c(-c5cccnc5)cccc43)n2)CC1` [Example 234] showed an activation at 1 µM (human Nav1.1; [7]) of 240% and an activation at 1 µM (human Nav1.5; [8]) of 4%.
For `CC1CCN(c2ccc(=O)n(CC(=O)Nc3cc(Cl)c4ocnc4c3)n2)CC1` [Example 94], the “Nav1.1 current amplification rate (%)” value (human Nav1.1; [1]) was 198% and the “Nav1.5 current amplification rate (%)” value (human Nav1.5; [2]) was 29%.
